The subject of test [1] is NCI-H292 human Non-Small-Cell Cancer Cells. As to the kind of experiment: IL-8 secretion in culture supernatant by ELISA. Type of test: cell-based. The settings on record: 4 nM paclitaxel, 1, 3 or 7 days, last 24H of culture, FIG. 3. As to the method:
NCI-H292 human Non-Small-Cell Cancer Cells were plated at 5000 cells/cm^2 in a 6-well plate in RPMI supplemented with 10% FCS and 1% Hepes/1% NAPy/PS. […] The following tests were then performed to ascertain the Paclitaxel-Treated Cells' senescence status.
(§1) 1) An inverted phase-contrast light microscope was used at 40× magnification to evaluate morphology of the Paclitaxel-Treated Cells. […] 2) The senescence-associated β-galactosidase [SA-β-GAL] activity was measured in the Paclitaxel-Treated Cells described above using the Senescence beta-galactosidase Staining Kit (Cell Signaling Technology) (FIG. 2). 3) The secretion of IL-8 as part of the senescence-associated secretome (Tchkonia et al., 2013; J Clin Invest. 123(3):966-72) was quantified in the culture supernatant of the Paclitaxel-Treated Cells using an ELISA kit (Biolegend Kit hulL8), and read on a TECAN microplate reader).
In general terms: In an ELISA, binding on a coated surface is turned into a signal by an enzyme label.

In test [2] the test system is NCI-H292 cells. In words: TLR3 expression by intracellular staining and flow cytometry. The format is cell-based, human. The settings on record: 7 days of culture with paclitaxel 4 nM, anti-TLR3.1 antibody, FIG. 4. As to the method: To ascertain that TLR3 expression was not lost upon senescence, Paclitaxel-Treated Cells were harvested, fixed and permeabilized with the Cytoperm/Cytofix kit (Becton Dickinson), then stained at 4° C. for TLR3 (anti-TLR3.1 antibody (Dendritics)+goat anti-mouse Alexa 647) and analyzed on a Becton Disckison FACSCalibur flow cytometer.
For orientation: A flow cytometer gives signals particle by particle.

Test [3] relates to NCI-H292 human Non-Small-Cell Cancer Cells. As to the kind of experiment: Senescence status of Paclitaxel-Treated Cells (phase-contrast morphology, SA-β-GAL, IL-8). Type of test: cell-based. The settings on record: 4 nM paclitaxel. The method, then: (§2) NCI-H292 human Non-Small-Cell Cancer Cells were plated at 5000 cells/cm^2 in a 6-well plate in RPMI supplemented with 10% FCS and 1% Hepes/1% NAPy/PS. They were treated after 16-24 hours of plating and for 7 to 10 days with 4 nM paclitaxel (Sigma) or with DMSO (“solvent”), with a change of medium on day 4. The following tests were then performed to ascertain the Paclitaxel-Treated Cells' senescence status.
as §1

Test [4] concerns TLR3 WT and TLR3 KO NCI-H292 untreated or Paclitaxel-Treated Cells. In words: TLR3-triggered apoptosis (Annexin V-FITC/PI flow cytometry) in Paclitaxel-Treated Cells. Conditions: 4 μg/ml Poly(I:C), 24 hours, paclitaxel-induced senescent vs untreated NCI-H292, FIG. 5. The format is cell-based, human. The method, then: as §2
TLR3 WT and TLR3 KO NCI-H292 untreated or Paclitaxel-Treated Cells were incubated for 24 hours with 4 μg/ml Poly(I:C) (Invivogen), then cells were stained at 4° C. with Annexin V-FITC and PI (Biolegend) and analyzed on a Becton Disckison FACSCalibur flow cytometer.

Test [5] deals with Untreated or Oxidative Stress-induced Senescent WT and TLR3 KO NCI-H292 Cells. As to the kind of experiment: TLR3-triggered apoptosis (Annexin V-FITC flow cytometry) in Oxidative Stress-induced Senescent Cells. Type of test: cell-based, human. Conditions: 10 μg/ml Poly(I:C), 24 hours, senescence by 300 μM H2O2 vs untreated NCI-H292, FIG. 7. As to the method:
NCI-H292 human Non-Small-Cell Cancer Cells were plated at 5000 cells/cm^2 in a 6-well plate in RPMI supplemented with 10% FCS and 1% Hepes/1% NAPy/PS. They were treated with 300 μM H2O2 16 hours after plating, and the medium was changed 1 hour after H2O2 treatment.
Oxidative Stress-induced Senescent Cells' susceptibility to TLR3-triggered apoptosis was measured. Untreated or Oxidative Stress-induced Senescent WT and TLR3 KO NCI-H292 Cells were incubated for 24 hours with 10 μg/ml Poly(I:C) (Invivogen), then cells were stained at 4° C. with Annexin V-FITC (Biolegend) and analyzed on a Becton Disckison FACSCalibur flow cytometer.

For test [6], the system named is Untreated or Radiation-Induced Senescent WT and TLR3 KO NCI-H292 Cells. As to the kind of experiment: TLR3-triggered apoptosis (Annexin V-FITC PI flow cytometry) in Radiation-Induced Senescent Cells. The format is cell-based, human. The settings on record: 10 μg/ml Poly(I:C), 24 hours, senescence by 8 Grey irradiation vs untreated NCI-H292, FIG. 6. The method, then: NCI-H292 human Non-Small-Cell Cancer Cells were plated at 5000 cells/cm^2 in a 6-well plate in RPMI supplemented with 10% FCS and 1% Hepes/1% NAPy/PS. They were irradiated with 8 Grey 16 hours after plating, and the medium was changed right after irradiation.
Radiation-Induced Senescent Cells' susceptibility to TLR3-triggered apoptosis was measured. Untreated or Radiation-Induced Senescent WT and TLR3 KO NCI-H292 Cells were incubated for 24 hours with 10 μg/ml Poly(I:C) (Invivogen), then cells were stained at 4° C. with Annexin V-FITC PI (Biolegend) and analyzed on a Becton Disckison FACSCalibur flow cytometer.

“Also recorded” adds a separate entry of the source.

Turning to `CC(=O)O[C@H]1C(=O)[C@@]2(C)[C@H]([C@H](OC(=O)c3ccccc3)[C@]3(O)C[C@H](OC(=O)[C@H](O)[C@@H](NC(=O)c4ccccc4)c4ccccc4)C(C)=C1C3(C)C)[C@]1(OC(C)=O)CO[C@@H]1C[C@@H]2O` [Paclitaxel, paclitaxel], the “secretion of IL-8 in the culture supernatant” value in test [1] is “Large amounts of IL-8”. The “expression of TLR3 by NCI-H292 cells” value in test [2] is “increased”. Also, the “morphology of the Paclitaxel-Treated Cells (observed changes)” value in test [3] (7 to 10 days, NCI-H292, phase-contrast microscopy 40x, FIG. 1) is “a stop in cell division and enlargement in size”. Besides, in test [3] (NCI-H292, FIGS. 1-3), the “senescence status of the cells” value was “have become senescent”.

For “Polyinosine-polycytidylic acid [Poly(I:C)]”, the “susceptibility to TLR3-triggered apoptosis” value is recorded as “more sensitive to TLR3-triggered apoptosis” in test [4], “induces apoptosis; also recorded: more sensitive to TLR3-triggered apoptosis” in test [5] and “induces apoptosis; also recorded: more sensitive to TLR3-triggered apoptosis” in test [6].

The values above are taken from US20190292546A1, “TLR3 AGONIST FOR USE FOR INDUCING APOPTOSIS IN SENESCENT CANCER CELLS” (Centre Léon-Bérard, priority 2016, published 2019).
